Test results as given in patent US20240050577A1, “CDK INHIBITORS AND PHARMACEUTICAL USES THEREOF” (RISEN (SUZHOU) PHARMA TECH CO., LTD., priority 2022, published 2024).

System: OVCAR3 cells
Assay: Cell proliferation study (Cell Titer Glo, 72 h)
Type: cell-based
Settings: Homo sapiens, OVCAR-3, luminescence, read-out: IC50, inhibitory effect on cellular proliferation
Procedure: OVCAR3 (Cobioer, CBP60294) cell line in logarithmic growth phase was used for these experiments. The cell density was adjusted to 1.1×10^4/mL and the cells were inoculated into a 96-well cell culture plate (Corning, 3599), 95 μL per well (the number of cells per well was 1×10^3). The culture plate was placed in an incubator, with 5% carbon dioxide, at 37° C. and incubated overnight. On the next day, a 10 mM stock solution of test compound was prepared in DMSO (Sigma, RNBF5902). After gradient dilution, a series of working solutions with different concentrations of test compound was prepared using complete medium. Working solution was added into the corresponding wells of the orifice plate, and the plate was placed in a 5% carbon dioxide incubator and cultivated at 37° C. for 72 h, and then removed from the incubator. To each well was added 50 μL Cell Tier Glo (Promega, G7573), and the plate was incubated at room temperature for 10 min, followed by luminescence detection with an enzyme marker. The inhibition curve was obtained with GraphPad 7.0 software using four-parameter equation.

Compound `Cc1nc2c(F)cc(-c3nc(Nc4ccc(S(=O)(=O)NCCOCCOCCOCCNc5cccc6c5C(=O)N(C5CCC(=O)NC5=O)C6=O)cc4)ncc3F)cc2n1C(C)C` (centres unmarked) [Compound 48] has an IC50 of 1000 to 5000 nM.
`Cc1nc2c(F)cc(-c3nc(NC4CCN(S(=O)(=O)C5CCN(CC6CC(N7CCC(c8ccc9c(C%10CCC(=O)NC%10=O)nn(C)c9c8)CC7)C6)CC5)CC4)ncc3F)cc2n1C(C)C` (centres unmarked) [Compound 103] was tested, and the IC50 was < 100 nM.
`Cc1nc2c(F)cc(-c3nc(Nc4ccc(S(=O)(=O)NCCOCCOCCNc5cccc6c5C(=O)N(C5CCC(=O)NC5=O)C6=O)cc4)ncc3F)cc2n1C(C)C` (centres unmarked) [Compound 49] gave an IC50 of 1000 to 5000 nM.
In the case of `C[C@@]1(O)CCC[C@H]1n1c(=O)ccc2cnc(NC3CCN(S(=O)(=O)C4CCN(C5CC6(CC(NC(=O)C7CCN(c8cc9c(cc8F)C(=O)N(C8CCC(=O)NC8=O)C9=O)CC7)C6)C5)CC4)CC3)nc21` (some centres unmarked) [Compound 86], the IC50 is reported as 101 to 1000 nM.
In the case of `CC(C)N1CCOc2c(F)cc(-c3nc(Nc4ccc(S(=O)(=O)N5CCN(C6CCN(C7CN(c8cccc9c8C(=O)N(C8CCC(=O)NC8=O)C9=O)C7)CC6)CC5)cc4)ncc3F)cc21` (centres unmarked) [Compound 55], the IC50 is reported as > 10000 nM.
`CC(C)N1CCOc2c(F)cc(-c3nc(Nc4ccc(S(=O)(=O)N5CCN(C6CC7(CCN(c8cccc9c8C(=O)N(C8CCC(=O)NC8=O)C9=O)CC7)C6)CC5)cc4)ncc3F)cc21` (centres unmarked) [Compound 72] was tested, and the IC50 was > 10000 nM.
Compound `C[C@@]1(O)CCC[C@H]1n1c(=O)c(C(F)F)cc2cnc(NC3CCN(S(=O)(=O)C4CCN(C5CC6(CCN(c7cc8c(cc7F)C(=O)N(C7CCC(=O)NC7=O)C8=O)CC6)C5)CC4)CC3)nc21` (some centres unmarked) [Compound 35] has an IC50 of 101 to 1000 nM.
`C[C@@]1(O)CCC[C@H]1n1c(=O)ccc2cnc(NC3CCN(S(=O)(=O)C4CCN(C(=O)C5CCN(c6cc7c(cc6F)C(=O)N(C6CCC(=O)NC6=O)C7=O)CC5)CC4)CC3)nc21` (some centres unmarked) [Compound 67] gave an IC50 of 101 to 1000 nM.
With `C[C@@]1(O)CCC[C@H]1n1c(=O)ccc2cnc(NC3CCN(S(=O)(=O)C4CCN(C5CC(C6CCN(c7cc8c(cc7F)C(=O)N(C7CCC(=O)NC7=O)C8=O)CC6)C5)CC4)CC3)nc21` (some centres unmarked) [Compound 96] the IC50 was > 10000 nM.
For `CC(C)N1CCOc2c(F)cc(-c3nc(Nc4ccc(C5CCN(CCCCNC(=O)COc6cccc7c6C(=O)N(C6CCC(=O)NC6=O)C7=O)CC5)nc4)ncc3F)cc21` (centres unmarked) [Compound 30], the IC50 was 101 to 1000 nM.
With `C[C@@]1(O)CCC[C@H]1n1c(=O)ccc2cnc(NC3CCN(S(=O)(=O)C4CCN(CC5CCN(c6cc7c(cc6F)C(=O)N(C6CCC(=O)NC6=O)C7=O)CC5)CC4)CC3)nc21` (some centres unmarked) [Compound 93] the IC50 was 1000 to 5000 nM.
`C[C@@]1(O)CCC[C@H]1n1c(=O)ccc2cnc(Nc3ccc(S(=O)(=O)C4CCN(C5CN(C6CCN(c7cc8c(cc7F)C(=O)N(C7CCC(=O)NC7=O)C8=O)CC6)C5)CC4)cc3)nc21` (some centres unmarked) [Compound 59] gave an IC50 of 1000 to 5000 nM.
`Cc1nc2c(F)cc(-c3nc(Nc4ccc(S(=O)(=O)N5CC(C(=O)N6CCC7(CC6)CCN(c6cccc8c6C(=O)N(C6CCC(=O)NC6=O)C8=O)CC7)C5)cc4)ncc3F)cc2n1C(C)C` (centres unmarked) [Compound 40] was tested, and the IC50 was > 10000 nM.
With `C[C@@]1(O)CCC[C@H]1n1c(=O)ccc2cnc(Nc3ccc(S(=O)(=O)C4CCN(C5CC6(C5)CN(c5cc7c(cc5F)C(=O)N(C5CCC(=O)NC5=O)C7=O)C6)CC4)cc3)nc21` (some centres unmarked) [Compound 76] the IC50 was > 10000 nM.
In the case of `C[C@@]1(O)CCC[C@H]1n1c(=O)ccc2cnc(Nc3ccc(S(=O)(=O)C4CCN(CC5CCN(c6cccc7c6C(=O)N(C6CCC(=O)NC6=O)C7=O)CC5)CC4)cc3)nc21` (some centres unmarked) [Compound 44], the IC50 is reported as > 10000 nM.
Compound `C[C@@]1(O)CCC[C@H]1n1c(=O)ccc2cnc(NC3CCN(S(=O)(=O)C4CCN(C5CCC6(CCN(c7cc8c(cc7F)C(=O)N(C7CCC(=O)NC7=O)C8=O)CC6)C5)CC4)CC3)nc21` (some centres unmarked) [Compound 81] has an IC50 of 101 to 1000 nM.
In the case of `Cc1nc2c(F)cc(-c3nc(NC4CCN(S(=O)(=O)C5CCN(CC6CCN(c7cc8c(cc7F)C(=O)N(C7CCC(=O)NC7=O)C8=O)C6)CC5)CC4)ncc3F)cc2n1C(C)C` (centres unmarked) [Compound 108], the IC50 is reported as < 100 nM.
`Cc1nc2c(F)cc(-c3nc(Nc4ccc(S(=O)(=O)NCCOCCNc5cc6c(cc5F)C(=O)N(C5CCC(=O)NC5=O)C6=O)cc4)ncc3F)cc2n1C(C)C` (centres unmarked) [Compound 70] was tested, and the IC50 was 101 to 1000 nM.
For `Cc1nc2c(F)cc(-c3nc(NC4CCN(S(=O)(=O)C5CCN(CC6CC7(CCN(c8cc9c(cc8F)C(=O)N(C8CCC(=O)NC8=O)C9=O)CC7)C6)CC5)CC4)ncc3F)cc2n1C(C)C` (centres unmarked) [Compound 98], the IC50 was 101 to 1000 nM.
With `C[C@@]1(O)CCC[C@H]1n1c(=O)ccc2cnc(Nc3ccc(S(=O)(=O)C4CCN(C5CCC6(CC5)CN(c5cc7c(cc5F)C(=O)N(C5CCC(=O)NC5=O)C7=O)C6)CC4)cc3)nc21` (some centres unmarked) [Compound 45] the IC50 was > 10000 nM.
With `C[C@@]1(O)CCC[C@H]1n1c(=O)ccc2cnc(Nc3ccc(S(=O)(=O)N4CCC5(CCN(C6CN(c7cc8c(cc7F)C(=O)N(C7CCC(=O)NC7=O)C8=O)C6)CC5)CC4)cc3)nc21` (some centres unmarked) [Compound 58] the IC50 was 1000 to 5000 nM.
`Cc1nc2c(F)cc(-c3nc(NC4CCN(S(=O)(=O)C5CN(CC6CN(c7cc8c(cc7F)C(=O)N(C7CCC(=O)NC7=O)C8=O)C6)C5)CC4)ncc3F)cc2n1C(C)C` (centres unmarked) [Compound 109] showed an IC50 of 1000 to 5000 nM.
`CC(C)N1CCOc2c(F)cc(-c3nc(Nc4ccc(S(N)(=O)=O)cc4)ncc3F)cc21` [Compound 31] was tested, and the IC50 was 101 to 1000 nM.
`C[C@@]1(O)CCC[C@H]1n1c(=O)ccc2cnc(NC3CCN(S(=O)(=O)C4CCN(CC5CCC6(CC5)CCN(c5cc7c(cc5F)C(=O)N(C5CCC(=O)NC5=O)C7=O)CC6)CC4)CC3)nc21` (some centres unmarked) [Compound 90] was tested, and the IC50 was 101 to 1000 nM.
With `CC(C)N1CCOc2c(F)cc(-c3nc(Nc4ccc(C5CCN(CCOCCOCCOCCNc6cccc7c6C(=O)N(C6CCC(=O)NC6=O)C7=O)CC5)cn4)ncc3F)cc21` (centres unmarked) [Compound 6] the IC50 was 1000 to 5000 nM.
`Cc1nc2c(F)cc(-c3nc(NC4CCN(S(=O)(=O)C5CCN(C(=O)C6CCN(c7cc8c(cc7F)C(=O)N(C7CCC(=O)NC7=O)C8=O)CC6)CC5)CC4)ncc3F)cc2n1C(C)C` (centres unmarked) [Compound 74] was tested, and the IC50 was 1000 to 5000 nM.
`CC(C)N1CCOc2c(F)cc(-c3nc(NC4CCN(S(=O)(=O)C5CCN(C6CC7(CCN(c8cc9c(cc8F)C(=O)N(C8CCC(=O)NC8=O)C9=O)CC7)C6)CC5)CC4)ncc3F)cc21` (centres unmarked) [Compound 51] was tested, and the IC50 was > 10000 nM.
With `CC(C)N1CCOc2c(F)cc(-c3nc(Nc4ccc(S(=O)(=O)N5CCN(CC6CCN(c7cccc8c7C(=O)N(C7CCC(=O)NC7=O)C8=O)CC6)CC5)cc4)ncc3F)cc21` (centres unmarked) [Compound 54] the IC50 was > 10000 nM.
Compound `Cc1nc2c(F)cc(-c3nc(Nc4ccc(S(=O)(=O)C5CCN(C6CC7(CCN(c8cc9c(cc8F)C(=O)N(C8CCC(=O)NC8=O)C9=O)CC7)C6)CC5)cc4)ncc3F)cc2n1C(C)C` (centres unmarked) [Compound 46] has an IC50 of 101 to 1000 nM.
Work on `Cc1nc2c(F)cc(-c3nc(NC4CCN(S(=O)(=O)C5CCN(CCC6CCN(c7cc8c(cc7F)C(=O)N(C7CCC(=O)NC7=O)C8=O)CC6)CC5)CC4)ncc3F)cc2n1C(C)C` (centres unmarked) [Compound 104] yielded an IC50 of 101 to 1000 nM.
`Cc1nc2c(F)cc(-c3nc(Nc4ccc(S(=O)(=O)NCCOCCNc5cccc6c5C(=O)N(C5CCC(=O)NC5=O)C6=O)cc4)ncc3F)cc2n1C(C)C` (centres unmarked) [Compound 47] gave an IC50 of 1000 to 5000 nM.
`Cc1nc2c(F)cc(-c3nc(NC4CCN(S(=O)(=O)C5CCN(CC6CCN(c7cc8c(cc7F)C(=O)N(C7CCC(=O)NC7=O)C8=O)CC6)CC5)CC4)ncc3F)cc2n1C(C)C` (centres unmarked) [Compound 71] was tested, and the IC50 was < 100 nM.
Work on `C[C@@]1(O)CCC[C@H]1n1c(=O)ccc2cnc(NC3CCN(S(=O)(=O)C4CCN(C5CC6(C5)CN(C(=O)C5CCN(c7cc8c(cc7F)C(=O)N(C7CCC(=O)NC7=O)C8=O)CC5)C6)CC4)CC3)nc21` (some centres unmarked) [Compound 85] yielded an IC50 of 1000 to 5000 nM.
Compound `C[C@@]1(O)CCC[C@H]1n1c(=O)ccc2cnc(NC3CCN(S(=O)(=O)C4CCN(C(=O)C5CC6(CCN(c7cc8c(cc7F)C(=O)N(C7CCC(=O)NC7=O)C8=O)CC6)C5)CC4)CC3)nc21` (some centres unmarked) [Compound 77] has an IC50 of 1000 to 5000 nM.
For `Cc1nc2c(F)cc(-c3nc(N[C@@H]4CCN(S(=O)(=O)C5CCN(CC6CCN(c7cc8c(cc7F)C(=O)N(C7CCC(=O)NC7=O)C8=O)CC6)CC5)C[C@H]4O)ncc3F)cc2n1C(C)C` (some centres unmarked) [Compound 111], the IC50 was < 100 nM.
With `CC(C)N1CCOc2c(F)cc(-c3nc(Nc4ccc(S(=O)(=O)NCCOCc5cn(CCOCCOCCNc6cc7c(cc6F)C(=O)N(C6CCC(=O)NC6=O)C7=O)nn5)cc4)ncc3F)cc21` (centres unmarked) [Compound 21, N-[2-[[1-[2-[2-[2-[[2-(2,6-dioxo-3-piperidyl)-6-fluoro-1,3-dioxo-isoindolin-5-yl]amino]ethoxy]ethoxy]ethyl]triazol-4-yl]methoxy]ethyl]-4-[[5-fluoro-4-(8-fluoro-4-isopropyl-2,3-dihydro-1,4-benzoxazin-6-yl)pyrimidin-2-yl]amino]benzenesulfonamide] the IC50 was 1000 to 5000 nM.
In the case of `CC(C)N1CCOc2c(F)cc(-c3nc(Nc4ccc(S(=O)(=O)N5CCN(C6CN(C7CCN(c8cccc9c8C(=O)N(C8CCC(=O)NC8=O)C9=O)CC7)C6)CC5)cc4)ncc3F)cc21` (centres unmarked) [Compound 52], the IC50 is reported as 1000 to 5000 nM.
`Cc1nc2c(F)cc(-c3nc(Nc4ccc(S(=O)(=O)NCCOCCOCCNc5cc6c(cc5F)C(=O)N(C5CCC(=O)NC5=O)C6=O)cc4)ncc3F)cc2n1C(C)C` (centres unmarked) [Compound 69] gave an IC50 of 1000 to 5000 nM.
`Cc1nc2c(F)cc(-c3nc(NC4CCN(S(=O)(=O)C5CCN(CC6CC7CCC(C6)N7c6cc7c(cc6F)C(=O)N(C6CCC(=O)NC6=O)C7=O)CC5)CC4)ncc3F)cc2n1C(C)C` (centres unmarked) [Compound 99] was tested, and the IC50 was 101 to 1000 nM.
Compound `Cc1nc2c(F)cc(-c3nc(Nc4ccc(S(=O)(=O)NCCOCc5cn(CCOCCOCCNc6cccc7c6C(=O)N(C6CCC(=O)NC6=O)C7=O)nn5)cc4)ncc3F)cc2n1C(C)C` (centres unmarked) [Compound 50] has an IC50 of 1000 to 5000 nM.
`CC(C)N1CCOc2c(F)cc(-c3nc(Nc4ccc(S(=O)(=O)N5CCN(C(=O)C6CCN(c7cccc8c7C(=O)N(C7CCC(=O)NC7=O)C8=O)CC6)CC5)cc4)ncc3F)cc21` (centres unmarked) [Compound 53] was tested, and the IC50 was > 10000 nM.
